Experimental data: US8470812B2, “Substituted benzo-pyrimido-tetrazolo-diazepine compounds” (ArQule, Inc., priority 2009, dated 2013)
Where a name gives a salt, the structure may show the parent alone.

Experiments:
[1] = tested on: MDA-MB-231 cancer cells; test: MTS assay, cell growth inhibition; assay type: cell-based; details: MDA-MB-231 cells, 72 h incubation; test concentration not given
Method: (§1) Cells were maintained at 37° C., 5% CO2 in DMEM media supplemented with 1% fetal bovine serum, penicillin/streptomycin and fungizone (Invitrogen). Cells were seeded into 96-well tissue culture plates at 3000 per well and cultured at 37° C. for 18 hours. Test compounds were dissolved and diluted to 300× in DMSO then diluted 1:40 in DMEM. Cells were incubated with test compounds for 72 hours followed by incubation with tetrazolium compound (3-(4,5-dimethylthiazol-2-yl)-5-(3-carboxymethoxyphenyl)-2-(4-sulfophenyl)-2H-tetrazolium, inner salt; MTS) and the electron coupling reagent, phenazine methosulfate (PMS) for 4 hours. […] The ability of compounds to inhibit cell growth in this assay is correlated with the reduction of dehydrogenase enzyme activity found in metabolically active cells. The measurement of the absorbance of the formazan was assessed using a Victor (Perkin Elmer) microplate reader at 492 nm. The calculated IC50 value is the concentration of the test compound that causes a 50% decrease in the absorbance. Selected compounds have been tested in DLD-1 and MDA-MB-231 cancer cells.

[2] = tested on: DLD-1 cancer cells; test: MTS assay, cell growth inhibition; assay type: cell-based; details: DLD-1 cells, 72 h incubation; test concentration not given
Method: as §1

[3] = target: CaMK2β (Homo sapiens, UniProt Q13554); test: CaMKII kinase activity, mobility shift assay (MSA); assay type: biochemical; details: 10 μM compound; ATP 25, GS peptide 1 uM; read-out: CaMK2β inh. @ 10 μM (%)
Method: (§2) CAMKII and CDK7 activity was assayed using a mobility shift assay (MSA). Test inhibitors and controls (staurosporine) were prepared at 4× the desired final concentration. Test compound (5.0 μL), 4× substrate/ATP/metal solution (5.0 μL), and 2× kinase (10 μL) were added to each well of a reaction plate and incubated for 1 hr at room temperature. The assay components were diluted in assay buffer (20 mM HEPES pH 7.5, 0.01% Triton X-100, 2 mM DTT). To terminate the reaction, 60 μL of termination buffer (QuickScout Screening Assist MSA, Carna Biosciences) was added to each well. The reaction mixture was applied to the LabChip3000 system (Caliper Life Sciences) and the product and substrate peptide peaks were separated and quantified.

[4] = target: CaMK2δ (Homo sapiens, UniProt Q13557); test: CaMKII kinase activity, mobility shift assay (MSA); assay type: biochemical; details: 10 μM compound; ATP 5, GS peptide 1 uM; read-out: CaMK2δ inh. @ 10 μM (%)
Method: as §2

[5] = target: CaMK2α (Homo sapiens, UniProt Q9UQM7); test: CaMKII kinase activity, mobility shift assay (MSA); assay type: biochemical; details: 10 μM compound; ATP 50, GS peptide 1 uM; read-out: CaMK2α inh. @ 10 μM (%)
Method: as §2

[6] = target: CaMK2γ (Homo sapiens, UniProt Q13555); test: CaMKII kinase activity, mobility shift assay (MSA); assay type: biochemical; details: 10 μM compound; ATP 25, GS peptide 1 uM; read-out: CaMK2γ inh. @ 10 μM (%)
Method: as §2

[7] = target: CDK7 (Homo sapiens, UniProt P50613); test: CDK7 kinase activity, mobility shift assay (MSA); assay type: biochemical; details: 10 μM compound; ATP 50, CTD3 peptide 1 uM; read-out: CDK7 inh. @ 10 μM (%)
Method: as §2

Sequence of CDK7 (P50613 whole entry, species assumed): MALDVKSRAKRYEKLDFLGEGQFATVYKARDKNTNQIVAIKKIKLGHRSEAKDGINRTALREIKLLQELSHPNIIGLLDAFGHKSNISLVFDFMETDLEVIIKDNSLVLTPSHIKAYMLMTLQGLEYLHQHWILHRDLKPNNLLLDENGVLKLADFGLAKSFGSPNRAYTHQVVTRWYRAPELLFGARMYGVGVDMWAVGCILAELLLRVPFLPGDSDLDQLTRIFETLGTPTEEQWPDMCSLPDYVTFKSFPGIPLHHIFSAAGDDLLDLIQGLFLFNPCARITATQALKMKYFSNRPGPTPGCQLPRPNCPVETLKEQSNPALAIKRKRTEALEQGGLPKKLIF
Sequence of CDK7 (P51946 whole entry partner, species assumed): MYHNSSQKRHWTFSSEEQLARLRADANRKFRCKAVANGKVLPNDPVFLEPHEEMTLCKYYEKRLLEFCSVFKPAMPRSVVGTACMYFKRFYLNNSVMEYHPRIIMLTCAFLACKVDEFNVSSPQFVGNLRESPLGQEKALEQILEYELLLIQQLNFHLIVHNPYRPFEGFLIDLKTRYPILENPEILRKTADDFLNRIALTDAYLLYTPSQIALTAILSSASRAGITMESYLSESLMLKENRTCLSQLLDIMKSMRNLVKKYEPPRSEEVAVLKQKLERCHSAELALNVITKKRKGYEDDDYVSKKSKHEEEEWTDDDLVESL
Sequence of CDK7 (P51948 whole entry partner, species assumed): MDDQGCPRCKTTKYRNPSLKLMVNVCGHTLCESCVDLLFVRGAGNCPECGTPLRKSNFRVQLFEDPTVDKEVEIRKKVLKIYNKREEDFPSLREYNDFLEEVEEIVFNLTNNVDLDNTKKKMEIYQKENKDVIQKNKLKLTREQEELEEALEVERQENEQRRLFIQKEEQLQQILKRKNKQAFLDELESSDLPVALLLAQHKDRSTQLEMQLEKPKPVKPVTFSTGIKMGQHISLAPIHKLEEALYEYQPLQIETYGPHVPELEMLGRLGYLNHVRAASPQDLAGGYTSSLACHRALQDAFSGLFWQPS

SMILES | MDA-MB-231, MTS, 72 h (% Inhibition) [1] [%] | DLD-1, MTS, 72 h (% Inhibition) [2] [%] | other results
CCC(C)CNc1ncc2c(n1)Nc1ccccc1-n1nnnc1-2 (stereo not shown) [Compound 95, N-(2-methylbutyl)-9H-pyrimido[5,4-c]tetrazolo[1,5-a][1,5]benzodiazepin-11-amine] | 99 | 97 | –
CN1CCN(c2ncc3c(n2)N(Cc2ccc(F)c(F)c2)c2ccccc2-n2nnnc2-3)CC1 (as salt: HCl) [Compound 14, 9-(3,4-difluorobenzyl)-11-(4-methylpiperazin-1-yl)-9H-pyrimido[5,4-c]tetrazolo[1,5-a][1,5]benzodiazepine] | – | – | melting point: 180 to 191 °C
c1ccc2c(c1)Nc1nc(NC3CCCC3)ncc1-c1nnnn1-2 [Compound 45, N-cyclopentyl-9H-pyrimido[5,4-c]tetrazolo[1,5-a][1,5]benzodiazepin-11-amine] | 76 | 95 | –
Fc1ccc(CN2c3ccccc3-n3nnnc3-c3cnc(NCc4cccnc4)nc32)cc1F [Compound 16, 9-(3,4-difluorobenzyl)-N-(pyridin-3-ylmethyl)-9H-pyrimido[5,4-c]tetrazolo[1,5-a][1,5]benzodiazepin-11-amine] | 30 | 38 | inhibition at 10 µM [3]: 41%; inhibition at 10 µM [4]: 65%; inhibition at 10 µM [5]: 67%; inhibition at 10 µM [6]: 11%
COc1ccc(CNc2ncc3c(n2)Nc2ccccc2-n2nnnc2-3)cc1OC [Compound 57, N-(3,4-dimethoxybenzyl)-9H-pyrimido[5,4-c]tetrazolo[1,5-a][1,5]benzodiazepin-11-amine] | 39 | 97 | –
c1ccc2c(c1)Nc1nc(NCC3CC3)ncc1-c1nnnn1-2 [Compound 9, N-(cyclopropylmethyl)-9H-pyrimido[5,4-c]tetrazolo[1,5-a][1,5]benzodiazepin-11-amine] | 92 | 98 | –
Fc1ccc(CN2c3ccccc3-n3nnnc3-c3cnc(NCCN4CCOCC4)nc32)cc1F [Compound 18, 9-(3,4-difluorobenzyl)-N-(2-morpholin-4-ylethyl)-9H-pyrimido[5,4-c]tetrazolo[1,5-a][1,5]benzodiazepin-11-amine] | – | – | inhibition at 10 µM [3]: 23%; inhibition at 10 µM [4]: 32%; inhibition at 10 µM [5]: 42%; inhibition at 10 µM [6]: 12%; inhibition at 10 µM [7]: 84%
c1ccc2c(c1)CCCC2Nc1ncc2c(n1)Nc1ccccc1-n1nnnc1-2 (stereo not shown) [Compound 77, N-(1,2,3,4-tetrahydronaphthalen-1-yl)-9H-pyrimido[5,4-c]tetrazolo[1,5-a][1,5]benzodiazepin-11-amine] | 86 | 97 | –
CCCNc1ncc2c(n1)Nc1ccccc1-n1nnnc1-2 [Compound 41, N-propyl-9H-pyrimido[5,4-c]tetrazolo[1,5-a][1,5]benzodiazepin-11-amine] | 98 | 97 | –
CC(C)CC(C)Nc1ncc2c(n1)Nc1ccccc1-n1nnnc1-2 (stereo not shown) [Compound 63, N-(1,3-dimethylbutyl)-9H-pyrimido[5,4-c]tetrazolo[1,5-a][1,5]benzodiazepin-11-amine] | 32 | 90 | –
CC(C)(C)OC(=O)NC1CCCN(c2ncc3c(n2)N(Cc2ccc(F)c(F)c2)c2ccccc2-n2nnnc2-3)C1 (stereo not shown) [Compound 21, tert-butyl {1-[9-(3,4-difluorobenzyl)-9H-pyrimido[5,4-c]tetrazolo[1,5-a][1,5]benzodiazepin-11-yl]piperidin-3-yl}carbamate] | 97 | 97 | –
CC1CCCN1c1ncc2c(n1)Nc1ccccc1-n1nnnc1-2 (stereo not shown) [Compound 68, 11-(2-methylpyrrolidin-1-yl)-9H-pyrimido[5,4-c]tetrazolo[1,5-a][1,5]benzodiazepine] | 75 | 97 | –
CCCN(C)c1ncc2c(n1)Nc1ccccc1-n1nnnc1-2 [Compound 104, N-methyl-N-propyl-9H-pyrimido[5,4-c]tetrazolo[1,5-a][1,5]benzodiazepin-11-amine] | 99 | 97 | –
COc1ccc(OC)c(CNc2ncc3c(n2)Nc2ccccc2-n2nnnc2-3)c1 [Compound 103, N-(2,5-dimethoxybenzyl)-9H-pyrimido[5,4-c]tetrazolo[1,5-a][1,5]benzodiazepin-11-amine] | 97 | 97 | –
Fc1ccccc1CNc1ncc2c(n1)Nc1ccccc1-n1nnnc1-2 [Compound 88, N-(2-fluorobenzyl)-9H-pyrimido[5,4-c]tetrazolo[1,5-a][1,5]benzodiazepin-11-amine] | 41 | 96 | –
CN1CCN(c2ncc3c(n2)N(Cc2ccc(F)c(F)c2)c2ccccc2-n2nnnc2-3)CC1 [Compound 14, 9-(3,4-difluorobenzyl)-11-(4-methylpiperazin-1-yl)-9H-pyrimido[5,4-c]tetrazolo[1,5-a][1,5]benzodiazepine] | 58 | 49 | inhibition at 10 µM [3]: 88%; inhibition at 10 µM [4]: 96%; inhibition at 10 µM [5]: 96%; inhibition at 10 µM [6]: 80%
Fc1ccc(CN2c3ccccc3-n3nnnc3-c3cnc(N4CCNCC4)nc32)cc1F [Compound 11, 9-(3,4-difluorobenzyl)-11-piperazin-1-yl-9H-pyrimido[5,4-c]tetrazolo[1,5-a][1,5]benzodiazepine] | 97 | 97 | –
Fc1ccc(F)c(CNc2ncc3c(n2)Nc2ccccc2-n2nnnc2-3)c1 [Compound 59, N-(2,5-difluorobenzyl)-9H-pyrimido[5,4-c]tetrazolo[1,5-a][1,5]benzodiazepin-11-amine] | 71 | 97 | –
c1ccc2c(c1)Nc1nc(NC3CCC3)ncc1-c1nnnn1-2 [Compound 85, N-cyclobutyl-9H-pyrimido[5,4-c]tetrazolo[1,5-a][1,5]benzodiazepin-11-amine] | 99 | 97 | –
Clc1ccc(CNc2ncc3c(n2)Nc2ccccc2-n2nnnc2-3)cc1 [Compound 58, N-(4-chlorobenzyl)-9H-pyrimido[5,4-c]tetrazolo[1,5-a][1,5]benzodiazepin-11-amine] | 98 | 97 | –
COc1cc(CNc2ncc3c(n2)Nc2ccccc2-n2nnnc2-3)cc(OC)c1 [Compound 24, N-(3,5-dimethoxybenzyl)-9H-pyrimido[5,4-c]tetrazolo[1,5-a][1,5]benzodiazepin-11-amine] | 33 | 95 | –
